Consider 1 molecule from patent publication US20100022639A1, “Methods of Inducing Weight Loss” (The Johns Hopkins University School of Medicine Licensing …, priority 2000, published 2010).

The nature of data set [1]: Necropsy, histology, plasma alanine aminotransferase and tolerability in treated mice. Type of data set: in vivo. From the text: (§1) Alternatively, the signal from the FAS target tissue to the hypothalamus may be mediated by a humoral signal. This FAS-associated signal appears to be independent of the systemic release of the known feeding inhibitory hormones leptin and insulin, and the pro-inflammatory cytokines tumor necrosis factor-α and interleukin-1β. Nor is it reversed by administration of dexamethasone, a synthetic glucocorticoid.
(§2) The effect of C-75 treatment on feeding behavior and body weight in mice is both rapid and dramatic. A single treatment leads to the loss of as much as 20% of total body weight within 24 hours (FIG. 1.2A). This weight loss occurs in a dose dependent manner and persists for a duration that increases with dose. In all cases, treated animals recover lost body weight after the effect of the drug has dissipated, arguing against induction of a persistent wasting.

For a further data set, the system named is feeding behavior. In words: Feeding interval in 24 hour fasted mice. Type of data set: in vivo. The following applies: 30 mg/kg IP, within 20 minutes of treatment. How it is done: Mice were fasted for 24 hours to induce voracious feeding. Initial feeding interval (time in seconds between food presentation and initiation of feeding) was measured in naive mice (pretreat). Mice were then treated by I.P. injection of 30 mg/kg C-75 or RPMI vehicle and feeding interval determined at 20, 40 and 60 minutes post-injection. Observation was terminated if no feeding was initiated within 1000 see (experimental cut off). Times represent mean +/−SEM, (n=4).
Prior to treatment, all animals fed ravenously within 3 minutes of being offered food.

The nature of data set [2]: Body weight after a single IP injection. The class given is in vivo, BALB/c mice. How it is done:
as §2
Male BALB/c mice 19-22 g were weighed, treated by a single intra peritoneal (I.P.) injection and housed in metabolic cages. Body weight (FIG. 1.2A) and food intake (FIG. 1.2B) were monitored at 24 hour intervals.

Data set [3] in a line: Weight loss in mice lacking IL-1r and TNFαr1a receptors. The following applies: mouse, in vivo.
Text: as §1

The test system of data set [4] is serum glucose. The data set is described as follows: Serum glucose in wild-type mice, acute treatment. The note with it: 30 mg/kg IP, 24 hours, n=7. Type of data set: in vivo, BALB/c mice. The method, then:
(§3) In addition to obesity, ob/ob mice also develop overt diabetes with significant elevation of blood glucose. C-75 corrected the hyperglycemia observed in vehicle treated mice with a nearly 3-fold reduction in mean serum glucose (FIG. 4A). Male ob/ob mice (n=3) were treated with C-75 or vehicle for 2 weeks (FIGS. 3B and C) and compared with age matched, untreated c57BL/6j mice (+/+). […] The normalization of blood glucose occurred from the profound weight loss in the ob/ob mice as acute treatment of normal mice with C-75 had no effect on serum other than that resulting from inhibition of feeding (FIG. 4B). Male BALB/c mice (n=7) were fasted for 24 hours or injected IP with 30 mg/kg C-75 or RPMI vehicle and allowed free access to food for 24 hours. In both cases, serum was collected at death and assayed for glucose: RefLab™ GLU (Medical Analysis Systems, Inc., Camarillo, Calif.). […] Both panels are representative of 2 experiments.

Data set [5] concerns serum glucose. The data set is described as follows: Serum glucose in ob/ob mice. The class given is in vivo. The following applies: 2 weeks treatment, n=3. The method, then:
as §3

Data set [6] has as its system neuropeptide Y (NPY) mRNA. In words: Northern blot of hypothalamic NPY mRNA. The following applies: 30 mg/kg C-75, 24 hours. Type of data set: in vivo, BALB/c mice. From the text: The control of body weight is integrated in the hypothalamus by a coordinated group of neuropeptides that monitor adiposity and feeding status and regulate feeding and energy utilization. A central regulator in this process is neuropeptide Y (NPY) (loftus, 1999, Sem. Cell. Dev. Biol., 10: 11). In the arcuate nucleus, the level of NPY increases in the fasted state (Schwartz, et al., 1998, Endocrinology, 139:2629), acting as a potent stimulus of feeding (O'Shea, et al., 1997, Endocrinology, 138:196-202). To ascertain whether C-75 might alter NPY regulation in the hypothalamus, the expression of NPY was examined by northern blot analysis of hypothalamic tissue microdissected from the brains of the fed, fasted and C-75-treated mice shown in FIG. 2A.
The hypothalamic region was microdissected from the brains of mice in FIG. 2A and total RNA was isolated. RNA was subjected to northern blot analysis using random primed probes (Feinberg, et al., 1983, Anal. Biochem., 132:6) for NPY and S26 (as a loading control). Tissue was extracted for total RNA as described, P. Chomczynski and N. Sacchi, Anal. Biochem. 162, 156(1987). 15 μg of total RNA was subjected to Northern blot analysis as described, T. Brown, K. Mackey, in Current Protocols in Molecular Biology, F. Ausubel, et al., Eds. (John Wiley and Sons, New York, 1997) pp. 4.9.1-4.9.16.

Data set [7] has as its system adipose fatty acid synthesis. In words: [U-14C]-acetate labeling of adipose tissue from C-75-treated mice. The class given is in vivo, BALB/c mice. How it is done: Female BALB/c mice were treated with 0.6 mg of C-75 in 200 μl RPMI, or vehicle control IP (3 per group). After 3 hours, the animals were killed and approximately 5 mg of adipose tissue was labeled with [U-^14C]-acetate, lipids were extracted and counted, [A. Rashid et al., Am. J. Pathol. 150 (1997)]. […] Values represent mean +/−SEM (*P<0.05).
Male BALB/c mice (4 per group) were given 2 g/kg dextrose by oral gavage. After 15 min mice were injected IP with 20 mg/kg C-75 or RPMI vehicle. One hour post-treatment, livers were rapidly removed, frozen and pulverized in liquid nitrogen, HC104 extracted and assayed for malonyl-CoA [J. D. McGarry, M. J. Stark, D. W. Foster., J. Biol. Chem 253, 8291 (1978)]. Intraperitoneal injection of mice with C-75 leads to a 95% reduction in ^14C-acetate incorporation into fatty acids and to a 110% increase in the level of hepatic malonyl-CoA, the principal substrate of FAS. Experiments described in panels B and C were repeated twice.

In the case of `C=C1C(=O)OC(CCCCCCCC)C1C(=O)O` (stereo not shown) [C-75], the tolerability in mice result in data set [1] (single IP treatment) is recorded as “well tolerated”. The “histological analysis of tissues from treated mice” value in data set [1] (single IP treatment (not shown)) was “no indication of adverse pathology”. Moreover, in data set [1] (treated mice), the “necropsy and histological analysis of all major organs” value is recorded as “no adverse pathology”; the “plasma alanine aminotransferase activity” value was “unchanged”. The “feeding initiation in fasted mice” value in the data set on feeding behavior is listed as “lost all interest in feeding”. The “loss of total body weight after a single treatment” value in data set [2] (within 24 hours, single IP treatment, 7.5-30 mg/kg) was at most 20%. In data set [2] (within a 24 hour period, BALB/c mice), the “loss of total body weight” value was 10-20%. For the same molecule, the “weight loss in mice lacking IL-1r and TNFαr1a receptors” value in data set [3] is on record as “weight loss was observed”. Also, the “effect on serum glucose in wild-type mice” value in the data set on serum glucose [4] is “no effect on serum glucose beyond that attributable to fasting”. Besides, in the data set with serum glucose [5], the “reduction in mean serum glucose” value is reported as about 3 fold. For the same molecule, the “level of hypothalamic NPY mRNA” value in data set [6] is recorded as “even lower than that of the fed controls”. For the same molecule, the “adipose fatty acid synthesis compared to vehicle control” value in data set [7] (0.6 mg C-75 IP, 3 hours, female BALB/c mice) is “markedly inhibited”. The “reduction in 14C-acetate incorporation into fatty acids” value in data set [7] (intraperitoneal injection) is listed as 95%.
